Here are results for one compound from PMC6934184, “Selective DNA-PKcs inhibition extends the therapeutic index of localized radiotherapy and chemotherapy” (The Journal of Clinical Investigation, 2019).

For the experiment, the target named is T1, ABL1 Q252H (Homo sapiens, UniProt P00519, Q252H).
T1 construct: purchased Thermo Fisher Scientific (Life Technologies) SelectScreen
Put plainly: SelectScreen LanthaScreen. It is filed as binding. The note with it: read-out: % displacement. In short, it runs like this: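 NU5455 was profiled across the SelectScreen Broad panel of kinase activity and binding assays. Z'LYTE reactions such as CSF1R ran at apparent Km ATP, while the Adapta CAMK1 assay used ATP listed as 10. Values are given as percent.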
A general note: Time-resolved FRET reads energy transfer from a long-lived donor to a nearby acceptor.

SMILES strings stand for the structures.

Take `CN(C(=O)CN1CCOCC1)c1ccc2sc3c(-c4cccc5c(=O)cc(N6CC7CCC(C6)O7)oc45)cccc3c2c1` [NU5455]: the inhibition at 1 µM was found to be 1.1%.
